# Experimental data reported in publication PMC9317628, “Secondary Metabolites in the Dendrobium heterocarpum Methanolic Extract and Their Impacts on Viability and Lipid Storage of 3T3-L1 Pre-Adipocytes” (Nutrients, 2022).
# Assays:
# [1] = tested on: 3T3-L1 cells; test: Oil Red O staining, cellular lipid content in differentiating cells; type: cell-based, mouse; conditions: for effect on cellular lipid storage (percentage of Oil Red O-stained cells): 5 µM, 48 h exposure, staining on day 8, vs untreated vehicle control; for IC50: Mus musculus, 3T3-L1, based on percentage of Oil Red O-stained, read-out: IC50 to suppress cellular lipid accumulation
# Experimental: The mouse embryonic 3T3-L1 pre-adipocytes purchased from the American Type Culture Collection (ATCC, Manassas, VA, USA) were cultured at 37 °C with a 5% CO2 stream in a complete Dulbecco’s modified Eagle medium (DMEM) (Gibco, Gaithersburg, MA, USA) that contained 10% fetal bovine serum (FBS; Gibco, Gaithersburg, MA, USA), 1000 units mL^−1 of penicillin/streptomycin (Gibco, Gaithersburg, MA, USA), and 2 mM of L-glutamine (Gibco, Gaithersburg, MA, USA). For adipocyte differentiation, 3T3-L1 cells at 100% confluent were incubated at 37 °C with a 5% CO2 stream for two days in a differentiation medium made of the complete DMEM plus 0.5 mM isobutyl methylxanthine (IBMX) (Sigma Aldrich, St. Louis, MO, USA), 1 µM of dexamethasone (Sigma Aldrich, St. Louis, MO, USA), and 5 µg mL^−1 of insulin (Sigma Aldrich, St. Louis, MO, USA). Then, the medium was replaced with an insulin medium made of the complete DMEM plus 5 µg mL^−1 of insulin, and cells were continuously incubated under the same conditions for another two days. The medium was replaced with the complete DMEM every two days to maintain adipocyte development. Cellular lipid droplets developed along the differentiation program could be observed under a light microscope (Nikon Ts2, Tokyo, Japan). Oil Red O staining was performed to determine the content of lipid droplets in differentiating 3T3-L1 cells. The adipocyte differentiation program as described previously was established, and cells were exposed to each tested compound at 5 µM for 48 h after obtaining 100% confluence. Cells exposed to 0.5% (v/v) DMSO and 20 µM of oxyresveratrol served as untreated vehicle and positive controls, respectively. Tested compounds were diluted in the differentiation medium before testing, in which the concentrations of DMSO were restricted to be lower than 0.5% (v/v). After the treatments, differentiating 3T3-L1 cells on day 8 of the differentiation program were fixed with 10% formalin and incubated with the Oil Red O staining solution (Sigma Aldrich, St. Louis, MO, USA) at an ambient temperature for 1 h. Cells were then washed thrice with distilled water and 60% (v/v) isopropanol (Sigma Aldrich, St. Louis, MO, USA) to remove the excess dye. Oil Red O-stained 3T3-L1 cells were observed using a light microscope (Nikon Ts2, Tokyo, Japan). The cellular Oil Red O content was extracted using absolute isopropanol and measured for absorbance at a 510 nm wavelength by the microplate reader. The percentage of Oil Red O-stained cells was calculated after normalization with the total cellular protein content determined by a BCA protein assay kit (Thermo Scientific, Rockford, CA, USA).
# [2] = tested on: 3T3-L1 pre-adipocytes; test: MTT cytotoxicity assay (cell viability); type: cell-based, mouse; conditions: 48 h; for non-cytotoxic concentrations: no significant difference from vehicle control; for cytotoxic effect (cell viability vs untreated vehicle control): 5 µM (lowest tested concentration)
# Experimental: (§1) The mouse embryonic 3T3-L1 pre-adipocytes purchased from the American Type Culture Collection (ATCC, Manassas, VA, USA) were cultured at 37 °C with a 5% CO2 stream in a complete Dulbecco’s modified Eagle medium (DMEM) (Gibco, Gaithersburg, MA, USA) that contained 10% fetal bovine serum (FBS; Gibco, Gaithersburg, MA, USA), 1000 units mL^−1 of penicillin/streptomycin (Gibco, Gaithersburg, MA, USA), and 2 mM of L-glutamine (Gibco, Gaithersburg, MA, USA). For adipocyte differentiation, 3T3-L1 cells at 100% confluent were incubated at 37 °C with a 5% CO2 stream for two days in a differentiation medium made of the complete DMEM plus 0.5 mM isobutyl methylxanthine (IBMX) (Sigma Aldrich, St. Louis, MO, USA), 1 µM of dexamethasone (Sigma Aldrich, St. Louis, MO, USA), and 5 µg mL^−1 of insulin (Sigma Aldrich, St. Louis, MO, USA). Then, the medium was replaced with an insulin medium made of the complete DMEM plus 5 µg mL^−1 of insulin, and cells were continuously incubated under the same conditions for another two days. The medium was replaced with the complete DMEM every two days to maintain adipocyte development. Cellular lipid droplets developed along the differentiation program could be observed under a light microscope (Nikon Ts2, Tokyo, Japan). The cytotoxic effect of elucidated compounds from D. heterocarpum on 3T3-L1 cell viability was evaluated using 3-(4,5-dimethylthiazol-2-yl)-2,5-diphenyl tetrazolium bromide (MTT) (Sigma Aldrich, St. Louis, MO, USA) assay. 3T3-L1 cells were seeded in 96-well plates at a density of 2 × 10^3 cells/well and incubated at 37 °C with a 5% CO2 stream until reaching 100% confluent. Cells were then exposed to varying concentrations (5, 10, and 20 µM) of the tested compounds in the complete DMEM for 48 h. Before testing, every tested compound resuspended in absolute dimethyl sulfoxide (DMSO) (Sigma Aldrich, St. Louis, MO, USA) was prepared by dilution using the complete DMEM. The concentration of DMSO in each treatment was limited to <0.5% (v/v). DMSO at 0.5% (v/v) and 20 µM of oxyresveratrol (a known compound with the ability to suppress adipocyte differentiation) were included in the tests as untreated vehicle and positive controls, respectively. After exposure for 48 h, the medium was removed, and the MTT solution (0.45 mg mL^−1), prepared by dissolving in phosphate-buffered saline (PBS), was added. The assay was incubated at 37 °C with a 5% CO2 stream for 3 h. Then, the MTT solution was replaced with absolute DMSO to dissolve the purple formazan crystal that formed, which was further measured for absorbance at a 570 nm wavelength using a microplate reader (Anthros, Durham, NC, USA). The relative absorbance value between treated cells to vehicle control cells was presented as the percentage of cell viability. Non-cytotoxic concentrations of a tested compound were defined based on no significant difference in the percentages of cell viability derived from the treatments and the vehicle control.
# [3] = tested on: 3T3-L1 cells; test: Nuclear staining with Hoechst 33342 / propidium iodide (cell death); type: cell-based; conditions: 20 µM, 48 h, Hoechst 33342/PI
# Experimental: 3T3-L1 cell death after exposure to varying concentrations of the tested compounds was also determined by the nuclear staining technique. Hoechst 33342 (Sigma Aldrich, St. Louis, MO, USA) and propidium iodide (PI) (Sigma Aldrich, St. Louis, MO, USA) were used as staining dyes. After 48 h of treatment, the assay medium was removed from 3T3-L1 cells and replaced with PBS containing 2 µg mL^−1 of Hoechst 33342 and 1 µg mL^−1 of PI. Cells were stained for 30 min at 37 °C with a 5% CO2 stream and observed/photographed under a fluorescence microscope (Olympus IX51 with DP70, Tokyo, Japan). Bright cells with a disseminated nucleus under both blue and red filters were referred to as dead cells.
# [4] = tested on: PPARγ; test: Western blot, PPARγ expression at early adipocyte differentiation; type: cell-based, mouse; conditions: 10 µM, 48 h in differentiation medium
# Experimental: (§2) The impacts of a tested compound on the expression and activation of proteins that are linked to cellular responses in the early phase of adipocyte differentiation were assessed using Western blot analysis. The list of proteins analyzed in this study included adipogenic regulators (i.e., PPARγ and C/EBPα) and the MAPK signaling pathways-mediated proteins (i.e., JNK, ERK, and p38). The expression or activation of each target protein was normalized with β-Actin as a reference cellular protein. The activation of JNK, ERK, and p38 was assessed using the phosphorylation ratio between those phosphorylated (i.e., p-ERK, p-JNK, and p-p38) and the sum of those phosphorylated and non-phosphorylated.
# (§3) 3T3-L1 pre-adipocytes at 100% confluence were exposed for 48 h to a tested compound at non-cytotoxic concentrations prepared in the differentiation medium. Cells were then washed with PBS (pH 7.4) and used for protein extraction by incubation in an ice-cold radio-immunoprecipitation assay buffer (Thermo Scientific, Rockford, CA, USA) supplemented with the protease inhibitor cocktail (Roche Applied Science, Indianapolis, IN, USA) for 45 min. Derived cell lysates were centrifuged at 4 °C, 6440× g for 15 min, and the supernatant was collected. The BCA protein assay kit was conducted to quantify the total protein content in the supernatant. […]
# [5] = tested on: C/EBPα; test: Western blot, C/EBPα expression at early adipocyte differentiation; type: cell-based, mouse; conditions: 10 µM, 48 h in differentiation medium
# Experimental: as §2, §3
# [6] = tested on: JNK; test: Western blot, JNK phosphorylation ratio; type: cell-based, mouse; conditions: 48 h, vs untreated vehicle control
# Experimental: as §2, §3
# [7] = tested on: ERK; test: Western blot, ERK phosphorylation ratio; type: cell-based, mouse; conditions: 48 h, vs untreated vehicle control
# Experimental: as §2, §3
# [8] = tested on: p38; test: Western blot, p38 phosphorylation ratio; type: cell-based, mouse; conditions: 48 h, vs untreated vehicle control
# Experimental: as §2, §3
# [9] = tested on: HeLa cervical cancer cell line; set-up: method as in doi:10.1177/1934578X20908678; conditions: cited from earlier work
# [10] = MTT cytotoxicity assay (cell viability); type: cell-based, mouse; conditions: mouse, 3T3-L1 pre-adipocytes, 20 µM, relative to vehicle control, read-out: percentage of cell viability
# Experimental: as §1
# [11] = tested on: α-glucosidase; conditions: cited from earlier work
# [12] = tested on: pancreatic lipase; conditions: cited from earlier work
# [13] = tested on: 3T3L-1 cells; set-up: method as in PMID 32571087; conditions: cited from earlier work
compound,measurement,setting,value
"COc1ccc(CCc2cc(OC)c(O)c(OC)c2)cc1 [Compound 1, amoenylin]",effect on cellular lipid storage (percentage of Oil Red O-stained cells),[1],significantly decrease
"COC(=O)CCc1ccc(O)cc1 [Compound 2, methyl 3-(4-hydroxyphenyl) propionate]",non-cytotoxic concentrations,[2],≤ 10 µM
same,effect on cellular lipid storage (percentage of Oil Red O-stained cells),[1],significantly decrease
"COc1ccc(CCc2cc(O)c(O)c(OC)c2)cc1 [Compound 3, 3,4-dihydroxy-5,4′-dimethoxybibenzyl]",non-cytotoxic concentrations,[2],≤ 10 µM
same,dead cells by nuclear staining,[3],some dead cells
same,effect on cellular lipid storage (percentage of Oil Red O-stained cells),[1],significantly decrease
same,IC50,[1],6.3 ± 0.1 µM
same,IC50 fold lower than oxyresveratrol,[1]; lipid accumulation IC50 ratio to positive control,approximately 3 fold
same,PPARγ expression relative to β-Actin,[4],maximum suppression
same,C/EBPα expression relative to β-Actin,[5],maximum suppression
same,JNK phosphorylation,[6]; 2.5 µM,did not affect
same,JNK phosphorylation,[6]; 10 µM,significantly suppressed
same,ERK phosphorylation,[7]; 2.5 µM,did not affect
same,ERK phosphorylation,[7]; 10 µM,significantly suppressed
same,p38 phosphorylation,[8]; 2.5 µM,did not affect
same,p38 phosphorylation,[8]; 10 µM,significantly suppressed
same,cytotoxic effect on HeLa cells,[9],did not show a cytotoxic effect
"COc1ccc(CCc2cc(OC)c3c(c2)O[C@@H](c2cc(OC)c(O)c(OC)c2)[C@H](CO)O3)cc1 [Compound 4, dendrocandin B]","viability at 48 h, 20 µM",[10],61.3 ± 1.1%
same,cytotoxic effect (cell viability vs untreated vehicle control),[2],significant decrease in cell viability
same,effect on cellular lipid storage (percentage of Oil Red O-stained cells),[1],absence of its bioactivity to suppress lipid accumulation
same,α-glucosidase activity inhibition,[11],did not hamper
same,pancreatic lipase activity inhibition,[12],did not hamper
"COc1ccc(CCc2cc(OC)c(O)c3c2C(Cc2ccc(OC)cc2)c2cc(O)c(O)c(OC)c2O3)cc1 (stereo not shown) [Compound 5, dendrofalconerol A]","viability at 48 h, 20 µM",[10],61.3 ± 1.1%
same,cytotoxic effect (cell viability vs untreated vehicle control),[2],significant decrease in cell viability
same,effect on cellular lipid storage (percentage of Oil Red O-stained cells),[1],did not exhibit the inhibitory effect on lipid accumulation
same,α-glucosidase activity inhibition,[11],strong capability to inhibit
same,pancreatic lipase activity inhibition,[12],strong capability to inhibit
"COc1cc([C@H]2OC[C@H]3[C@@H]2CO[C@@H]3c2cc(OC)c(O)c(OC)c2)cc(OC)c1O [Compound 6, syringaresinol]",non-cytotoxic concentrations,[2],≤ 10 µM
same,effect on cellular lipid storage (percentage of Oil Red O-stained cells),[1],significantly decrease
same,promotion of glucose uptake,[13],no function to promote glucose uptake
"Oc1cc(O)cc(/C=C/c2ccc(O)cc2O)c1 [oxyresveratrol, reference compound]",IC50,[1],20.2 ± 1.2 µM
